According to patent US20260042731A1, “(2,4-DICHLOROPHENOXY)ACETIC ACID ANALOGS” (CORTEVA AGRISCIENCE LLC, priority 2022, published 2026):
Like-named read-outs stand apart in the source and are kept apart here.

How the values were obtained:
[1] = test system: glyphosate resistant Conyza canadensis (L.) (ERICA), horseweed; assay: Postemergence herbicide evaluation, growth of Conyza canadensis (ERICA); type: in vivo; details: Erigeron canadensis, post-emergence, read-out: Ave. ERICA, percent reduction in plant size relative to the untreated control; for pest or weed control at 280 g/ha: 280 g ae/ha; for pest or weed control at 560 g/ha: 560 g ae/ha
[2] = test system: Chenopodium album (CHEAL), common lambsquarters; assay: Postemergence herbicide evaluation, growth of Chenopodium album (CHEAL); type: in vivo; details: Chenopodium album, post-emergence, read-out: Ave. CHEAL, percent reduction in plant size relative to the untreated control; for pest or weed control at 280 g/ha: 280 g ae/ha; for pest or weed control at 560 g/ha: 560 g ae/ha
[3] = test system: Ambrosia artemisiifolia (AMBEL), common ragweed; assay: Postemergence herbicide evaluation, growth of Ambrosia artemisiifolia (AMBEL); type: in vivo; details: Ambrosia artemisiifolia, post-emergence, read-out: AVE. AMBEL, percent reduction in plant size relative to the untreated control; for pest or weed control at 280 g/ha: 280 g ae/ha; for pest or weed control at 560 g/ha: 560 g ae/ha
[4] = test system: Amaranthus rudis (AMATA), tall water hemp; assay: Postemergence herbicide evaluation, growth of Amaranthus rudis (AMATA); type: in vivo; details: Amaranthus tuberculatus, post-emergence, read-out: Ave. AMATA, percent reduction in plant size relative to the untreated control; for pest or weed control at 280 g/ha: 280 g ae/ha; for pest or weed control at 560 g/ha: 560 g ae/ha
[5] = test system: Abutilon theophrasti (ABUTH), velvetleaf; assay: Postemergence herbicide evaluation, growth of Abutilon theophrasti (ABUTH); type: in vivo; details: Abutilon theophrasti, post-emergence, read-out: AVE. ABUTH, percent reduction in plant size relative to the untreated control; for pest or weed control at 280 g/ha: 280 g ae/ha; for pest or weed control at 560 g/ha: 560 g ae/ha
[6] = test system: weeds ABUTH, AMATA, AMBEL, CHEAL, ERICA; assay: Postemergence herbicide evaluation, overall average % weed control (ABUTH, AMATA, AMBEL, CHEAL, ERICA); type: in vivo; details: post-emergence, read-out: Overall Ave % Weed Control; for pest or weed control at 280 g/ha: 280 g ae/ha; for pest or weed control at 560 g/ha: 560 g ae/ha
[7] = Volatility of compounds measured by thermogravimetric analysis (TGA); type: physicochemical

Row | SMILES | pest or weed control at 280 g/ha ([1]; 168 h, 7 DAA) [%] | pest or weed control at 560 g/ha ([1]; 168 h, 7 DAA) [%] | pest or weed control at 280 g/ha ([1]; 336 h, 14 DAA) [%] | pest or weed control at 560 g/ha ([1]; 336 h, 14 DAA) [%] | pest or weed control at 280 g/ha ([1]; 504 h, 21 DAA) [%] | pest or weed control at 560 g/ha ([1]; 504 h, 21 DAA) [%] | pest or weed control at 280 g/ha ([2]; 168 h, 7 DAA) [%] | pest or weed control at 560 g/ha ([2]; 168 h, 7 DAA) [%] | pest or weed control at 280 g/ha ([2]; 336 h, 14 DAA) [%] | pest or weed control at 560 g/ha ([2]; 336 h, 14 DAA) [%] | pest or weed control at 280 g/ha ([2]; 504 h, 21 DAA) [%] | pest or weed control at 560 g/ha ([2]; 504 h, 21 DAA) [%] | pest or weed control at 280 g/ha ([3]; 168 h, 7 DAA) [%] | pest or weed control at 560 g/ha ([3]; 168 h, 7 DAA) [%] | pest or weed control at 280 g/ha ([3]; 336 h, 14 DAA) [%] | pest or weed control at 560 g/ha ([3]; 336 h, 14 DAA) [%] | pest or weed control at 280 g/ha ([3]; 504 h, 21 DAA) [%] | pest or weed control at 560 g/ha ([3]; 504 h, 21 DAA) [%] | pest or weed control at 280 g/ha ([4]; 168 h, 7 DAA) [%] | pest or weed control at 560 g/ha ([4]; 168 h, 7 DAA) [%] | further results
1 | C/C(=N\OC(=O)COc1ccc(Cl)cc1Cl)c1ccccc1Cl [Compound A24] | 80 | 75 | 98.5 | 91.5 | 94.5 | 97 | 75 | 77.5 | 91.5 | 95 | 98.5 | 94.5 | 70 | 75 | 75 | 75 | 97.5 | 100 | 82.5 | 72.5 | pest or weed control at 280 g/ha ([4]; 336 h, 14 DAA): 92.5%; pest or weed control at 560 g/ha ([4]; 336 h, 14 DAA): 90%; pest or weed control at 280 g/ha ([4]; 504 h, 21 DAA): 77.5%; pest or weed control at 560 g/ha ([4]; 504 h, 21 DAA): 72.5%; pest or weed control at 280 g/ha ([5]; 168 h, 7 DAA): 62.5%; pest or weed control at 560 g/ha ([5]; 168 h, 7 DAA): 57.5%; pest or weed control at 280 g/ha ([5]; 336 h, 14 DAA): 77.5%; pest or weed control at 560 g/ha ([5]; 336 h, 14 DAA): 67.5%; pest or weed control at 280 g/ha ([5]; 504 h, 21 DAA): 80%; pest or weed control at 560 g/ha ([5]; 504 h, 21 DAA): 85%; pest or weed control at 280 g/ha ([6]; 168 h, 7 DAA): 74%; pest or weed control at 560 g/ha ([6]; 168 h, 7 DAA): 71.5%; pest or weed control at 280 g/ha ([6]; 336 h, 14 DAA): 87%; pest or weed control at 560 g/ha ([6]; 336 h, 14 DAA): 83.8%; pest or weed control at 280 g/ha ([6]; 504 h, 21 DAA): 89.6%; pest or weed control at 560 g/ha ([6]; 504 h, 21 DAA): 89.8%; TGA Data (rate of weight loss, volatility) [7]: 0.03549 µg/min
2 | O=C(COc1ccc(Cl)cc1Cl)O/N=C1\CCCc2ccccc21 [Compound A25] | 60 | 72.5 | 83.5 | 77.5 | 67.5 | 99 | 72.5 | 72.5 | 65 | 92.5 | 75 | 75 | 70 | 80 | 62.5 | 67.5 | 87.5 | 82.5 | 65 | 57.5 | pest or weed control at 280 g/ha ([4]; 336 h, 14 DAA): 80%; pest or weed control at 560 g/ha ([4]; 336 h, 14 DAA): 82.5%; pest or weed control at 280 g/ha ([4]; 504 h, 21 DAA): 50%; pest or weed control at 560 g/ha ([4]; 504 h, 21 DAA): 64%; pest or weed control at 280 g/ha ([5]; 168 h, 7 DAA): 27.5%; pest or weed control at 560 g/ha ([5]; 168 h, 7 DAA): 30%; pest or weed control at 280 g/ha ([5]; 336 h, 14 DAA): 22.5%; pest or weed control at 560 g/ha ([5]; 336 h, 14 DAA): 27.5%; pest or weed control at 280 g/ha ([5]; 504 h, 21 DAA): 17.5%; pest or weed control at 560 g/ha ([5]; 504 h, 21 DAA): 30%; pest or weed control at 280 g/ha ([6]; 168 h, 7 DAA): 59%; pest or weed control at 560 g/ha ([6]; 168 h, 7 DAA): 62.5%; pest or weed control at 280 g/ha ([6]; 336 h, 14 DAA): 62.7%; pest or weed control at 560 g/ha ([6]; 336 h, 14 DAA): 69.5%; pest or weed control at 280 g/ha ([6]; 504 h, 21 DAA): 59.5%; pest or weed control at 560 g/ha ([6]; 504 h, 21 DAA): 70.1%; TGA Data (rate of weight loss, volatility) [7]: 0.8976 µg/min
